Test results published in ChEMBL document CHEMBL3526061, “Glucuronidation of edaravone by human liver and kidney microsomes: biphasic kinetics and identification of UGT1A9 as the major UDP-glucuronosyltransferase isoform” (Drug Metab Dispos, 2012).

Columns and labels:
Format in all cases: ADME
[1] = target: T1, UDP-glucuronosyltransferase 1A1 (Homo sapiens, UniProt P22309); assay: Activity of human recombinant UGT1A1 expressed in insect cells assessed as intrinsic clearance for enzyme mediated glucuronidation per mg protein by LC-MS/MS method
T1 sequence (P22309 whole entry): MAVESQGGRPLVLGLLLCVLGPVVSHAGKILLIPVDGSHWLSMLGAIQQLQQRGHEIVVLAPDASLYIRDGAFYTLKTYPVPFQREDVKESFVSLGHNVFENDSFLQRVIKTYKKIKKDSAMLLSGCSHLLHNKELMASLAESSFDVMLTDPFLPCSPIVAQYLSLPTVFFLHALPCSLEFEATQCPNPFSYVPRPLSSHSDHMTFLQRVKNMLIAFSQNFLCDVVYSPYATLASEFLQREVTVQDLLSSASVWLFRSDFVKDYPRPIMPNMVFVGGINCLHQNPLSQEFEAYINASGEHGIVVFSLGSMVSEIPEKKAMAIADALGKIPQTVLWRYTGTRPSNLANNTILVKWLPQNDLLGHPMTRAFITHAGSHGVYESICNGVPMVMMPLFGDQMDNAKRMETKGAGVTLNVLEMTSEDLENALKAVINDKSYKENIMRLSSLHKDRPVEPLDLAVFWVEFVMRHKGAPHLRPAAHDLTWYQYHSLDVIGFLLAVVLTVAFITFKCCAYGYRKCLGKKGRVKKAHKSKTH

[2] = Drug metabolism in human kidney microsomes assessed as drug glucuronidation per mg tissue in absence of BSA by LC-MS/MS method
[3] = target: T2, UDP-glucuronosyltransferase 2B7 (Homo sapiens, UniProt P16662); assay: Activity of human recombinant UGT2B7 expressed in insect cells assessed as enzyme mediated glucuronidation in presence of […] naloxone by LC-MS/MS method
T2 sequence (P16662 whole entry): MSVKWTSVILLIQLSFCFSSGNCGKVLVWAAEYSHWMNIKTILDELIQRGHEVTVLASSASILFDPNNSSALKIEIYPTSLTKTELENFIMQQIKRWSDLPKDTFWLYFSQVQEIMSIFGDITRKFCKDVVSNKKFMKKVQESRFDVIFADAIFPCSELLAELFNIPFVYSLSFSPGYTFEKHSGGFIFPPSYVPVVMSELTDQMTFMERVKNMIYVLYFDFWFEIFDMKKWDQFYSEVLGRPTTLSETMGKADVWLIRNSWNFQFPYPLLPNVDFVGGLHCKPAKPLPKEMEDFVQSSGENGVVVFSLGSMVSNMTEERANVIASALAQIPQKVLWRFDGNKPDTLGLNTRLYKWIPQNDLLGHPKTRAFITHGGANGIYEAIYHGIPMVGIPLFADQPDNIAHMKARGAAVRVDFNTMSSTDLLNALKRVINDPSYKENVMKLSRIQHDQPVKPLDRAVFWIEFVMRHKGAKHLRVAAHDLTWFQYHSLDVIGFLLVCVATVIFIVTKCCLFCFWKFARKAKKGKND

[4] = target: T3, UDP-glucuronosyltransferase 1A3 (Homo sapiens, UniProt P35503); assay: Activity of human recombinant UGT1A3 expressed in insect cells assessed as enzyme mediated glucuronidation at 500 uM by LC-MS/MS method
T3 sequence (P35503 whole entry): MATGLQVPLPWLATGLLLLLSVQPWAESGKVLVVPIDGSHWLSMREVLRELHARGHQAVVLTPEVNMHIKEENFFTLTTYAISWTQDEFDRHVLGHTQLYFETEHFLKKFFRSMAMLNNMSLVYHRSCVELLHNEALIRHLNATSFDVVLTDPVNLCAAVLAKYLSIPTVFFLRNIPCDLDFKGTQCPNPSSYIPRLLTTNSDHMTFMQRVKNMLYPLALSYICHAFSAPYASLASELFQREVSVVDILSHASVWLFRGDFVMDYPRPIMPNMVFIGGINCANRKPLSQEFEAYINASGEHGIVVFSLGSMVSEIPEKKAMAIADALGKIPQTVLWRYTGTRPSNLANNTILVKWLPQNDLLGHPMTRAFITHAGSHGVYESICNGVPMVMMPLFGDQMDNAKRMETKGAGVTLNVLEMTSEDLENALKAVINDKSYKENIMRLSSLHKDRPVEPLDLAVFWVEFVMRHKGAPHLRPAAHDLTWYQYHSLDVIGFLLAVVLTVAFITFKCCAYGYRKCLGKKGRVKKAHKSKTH

[5] = target: T4, UDP-glucuronosyltransferase 1A6 (Homo sapiens, UniProt P19224); assay: Activity of human recombinant UGT1A6 expressed in insect cells assessed as enzyme mediated glucuronidation at 500 uM by LC-MS/MS method
T4 sequence (P19224 whole entry): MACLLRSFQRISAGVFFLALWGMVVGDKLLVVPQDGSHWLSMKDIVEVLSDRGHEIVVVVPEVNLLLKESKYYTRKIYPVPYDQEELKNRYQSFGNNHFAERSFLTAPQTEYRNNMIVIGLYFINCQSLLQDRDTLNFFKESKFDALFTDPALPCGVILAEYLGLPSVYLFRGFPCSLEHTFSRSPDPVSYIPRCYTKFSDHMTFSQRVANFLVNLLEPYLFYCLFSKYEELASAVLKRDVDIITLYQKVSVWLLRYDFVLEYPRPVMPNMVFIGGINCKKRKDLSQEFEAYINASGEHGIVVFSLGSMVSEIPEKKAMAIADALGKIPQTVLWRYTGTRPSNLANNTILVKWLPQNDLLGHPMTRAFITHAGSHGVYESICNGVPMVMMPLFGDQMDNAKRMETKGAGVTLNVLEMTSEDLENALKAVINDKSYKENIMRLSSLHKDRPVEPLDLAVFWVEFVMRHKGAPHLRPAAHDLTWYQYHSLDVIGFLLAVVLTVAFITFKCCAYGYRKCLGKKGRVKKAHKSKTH

[6] = target: T2, UDP-glucuronosyltransferase 2B7; assay: Activity of human recombinant UGT2B7 expressed in insect cells assessed as enzyme mediated glucuronidation at 500 uM by LC-MS/MS method

CL(high) [1]: 0.2 µL/min/mg
VmaxH [2]: 336.5 pmol/min/g
VmaxL [2]: 2396 pmol/min/g
Drug metabolism [3]: metabolite_not_detected
Drug metabolism [4]: metabolite_detected
Drug metabolism [5]: metabolite_detected
Drug metabolism [6]: metabolite_detected
Structure (SMILES): CC1=NN(c2ccccc2)C(=O)C1 [EDARAVONE]
